Our source for the EC50 values is patent publication US20150232509A1, “SPIRO RING COMPOUNDS AS HEPATITIS C VIRUS (HCV) INHIBITORS” (SUNSHINE LAKE PHARMA CO., LTD., priority 2012, published 2015).

One may read the EC50 as the concentration that produces a half-maximal response.

Molecules are shown by their SMILES.

One assay relates to HCV GT1a replicon cells. The assay is described as follows: HCV Replicon assay, GT1a replicon cells (Luciferase / NEO qPCR). In kind it is cell-based. As to conditions: Hepatitis C virus, 72 hours incubation, read-out: EC50 against HCV 1a genotype. The procedure: (§1) An HCV Replicon assay was utilized in the present invention, and was prepared, developed and validated as described in Science, 1999, 285 (5424), 110-3 and J. Virol., 2003, 77 (5), 3007-19.
(§2) HCV GT1a, GT1b and GT2a replicon cells were used to test the currently described compound series as well as wild-type cells HCV 1b and resistant cells Y93H, L31F, P32L and 1302V. […]
(§3) The GT1a cells and GT1b cells were seeded into 96-well plates (8,000 cells in 125 μL/well) respectively; each compound was diluted to desired concentration using 5-fold serial dilutions protocol, 10 doses in duplicate, and added to wells with POD™ 810 Plate Assembler. The final concentration of DMSO was 0.5%; the plates were incubated in a CO2 incubator for 72 hours; after that, 40 μL of Luciferase assay substrate (Promega Bright-Glo) was added to each well, and detected by a chemiluminescence detection system (Topcount Microplate Scintillation and Luminescence Counter) 5 minutes later; data analysis.
(§4) The GT1a cells and GT1b cells were seeded into 96-well plates (8,000 cells in 125 μL/well) respectively; each compound was diluted to desired concentration using 5-fold serial dilutions protocol, 10 doses in duplicate, and added to wells with POD™ 810 Plate Assembler., the final concentration of DMSO was 0.5%; the cells were incubated in a CO2 incubator for 72 hours; quantitative PCR. • Sample preparation: the supernatant was removed, 100 μL of FCW buffer solution was added to each well, washed carefully and discarded the solution; 50 μL of lysate FCP was added to each well, the cells was lysed as PCR template and PCR template was diluted with DEPC water as sample template. • Quantitative PCR: preparation of reaction mixture according to PCR system; the reaction mixture was dispensed into a 384-well PCR reaction plate (specially for quantitative); and a standard template which was diluted in proportion was distributed into the plate; and the sample template was distributed into the plate; then the 384-well plate was sealed with closure plate membrane; the […] PCR machine was operated by procedures; data analysis. 3. Data Processing: the EC50 Values of Compounds were Analyzed by GraphPad Prism Software.

A further assay deals with HCV GT1b replicon cells. The assay is described as follows: HCV Replicon assay, GT1b replicon cells (Luciferase / NEO qPCR). To be noted: Hepatitis C virus, 72 hours incubation, read-out: EC50 against HCV 1b genotype. In kind it is cell-based. The procedure: as §1, §2, §3, §4
Background: A replicon is a self-replicating genome or part of one, used to study replication in cells.

For `COC(=O)NC(C(=O)N1CCCC1c1nc(-c2ccc(-c3ccc(-c4c[nH]c(C5CCCN5C(=O)C(NC(=O)OC)C(C)C)n4)c4c3C3(CCCC3)CC4)cc2)c[nH]1)C(C)C` (centres unmarked) [Example 54], the EC50 amounted to 3.57 nM with HCV GT1a replicon cells and 0.044 nM in the assay with HCV GT1b replicon cells.
For `COC(=O)NC(C(=O)N1CCCC1c1nc2cc(-c3ccc(-c4ccc5[nH]c(C6CCCN6C(=O)C(NC(=O)OC)C(C)C)nc5c4)c4c3CCC43CCCC3)ccc2[nH]1)C(C)C` (centres unmarked) [Example 53] the same measures were 0.263 nM and 0.074 nM.
On the same counts, the results for `C=C([C@@H](NC(=O)OC)C(C)C)N1CC(C)(C)C[C@H]1c1ncc(-c2ccc(-c3ccc(-c4cnc([C@@H]5CC(C)(C)CN5C(=O)[C@@H](NC(=O)OC)C(C)C)[nH]4)cc3)c3c2CCC32CCCC2)[nH]1` [Example 18] are 0.458 nM and 0.203 nM.
For `COC(=O)NC(C(=O)N1CCCC1c1ncc(-c2ccc(-c3ccc(-c4ccc5[nH]c(C6CCCN6C(=O)C(NC(=O)OC)C(C)C)nc5c4)c4c3C3(CCCC3)CC4)cc2)[nH]1)C(C)C` (centres unmarked) [Example 55] the same measures were 0.073 nM and 0.028 nM.
